Here are results for 38 compounds from patent publication US20070078263A1, “BIARYL SUBSTITUTED HETEROCYCLE INHIBITORS OF LTA4H FOR TREATING INFLAMMATION” (deCODE Chemistry, Inc., priority 2005, published 2007).

pIC50: −log10 of the molar value. Structures can show the parent of a compound that is named as a salt.

The test system of the first assay is human whole blood. Put plainly: Ex vivo assay testing inhibitory activity in human whole blood after stimulation with calcium ionophore (LTB4 ELISA).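 Note: heparinized human blood preincubated 15 min at 37 °C with compound, then ionomycin-stimulated for 30 min, LTB4 in plasma supernatant quantified by ELISA.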 The format is cell-based. The following applies: Ionomycin 20 μM, read-out: hWBIC50. (In an ELISA, binding on a coated surface is turned into a signal by an enzyme label.)
Protocol: (2) Ex vivo assay testing inhibitory activity in human whole blood after stimulation with calcium ionophor.
Human blood was collected in heparin-containing Vacutainer tubes. […] Then 4 μl of a series of compound dilutions (in DMSO) were added, followed by a 15 min incubation at 37° C. with gentle shaking. After that, blood samples were stimulated by adding Ionomycin (Calbiochem) to a final concentration of 20 μM. After another incubation at 37° C. for 30 min, samples were centrifuged for 5 min at 1800 g and 4° C. Supernatants were taken and LTB4 concentrations were determined using a commercially available enzyme-linked immunosobentassay (R&D Systems, Minneapolis, Minn.) according to the manufacturer's instructions.
Consider `Clc1ccc(-c2ccc(Cc3ccc(OC[C@H]4CCCN4)cc3)cc2)s1` [Example 111, (R)-2-{4-[4-(5-chloro-thiophen-2-yl)-benzyl]-phenoxymethyl}-pyrrolidine hydrogen chloroide salt], for which the pIC50 was > 5.30.

For the compound `Fc1ccc(Oc2ccc(OC[C@H]3CCCN3)cc2)cc1` [Example 49, (R)-2-[4-(4-Fluoro-phenoxy)-phenoxymethyl]-pyrrolidine], the pIC50 was > 5.30.

As to `O=C(O)CCCN1CCC[C@@H]1COc1ccc(Cc2ccccc2)cc1` [Example 10, 4-[(R)-2-(4-benzyl-phenoxymethyl)-pyrrolidin-1-yl]-butylic acid hydrochloride], the pIC50 is > 5.30.

`c1csc(-c2ccc(Oc3ccc(OC[C@H]4CCCN4)cc3)cc2)n1` [Example 146, 2-{4-[4-((R)-1-Pyrrolidin-2-ylmethoxy)-phenoxy]-phenyl}-thiazole hydrochloride salt]: the pIC50 is > 5.30.

For the compound `Ic1ccc(Cc2ccc(OC[C@H]3CCCN3)cc2)cc1` [Example 106, (R)-2-[4-(4-Iodo-benzyl)-phenoxymethyl]-pyrrolidine Hydrogen chloride salt], the pIC50 is > 5.30.

In the case of `O=C(O)CCCN1CCC[C@@H]1COc1ccc(Oc2ccc(C(F)(F)F)cc2)cc1` [Example 30, (R)-2-[4-(4-trifluoromethyl-phenoxy)-phenoxymethyl]-pyrrolidine-1-yl}butyric acid sodium salt], the pIC50 was > 5.30.

Regarding `O=C(CCCN1CCC[C@H]1COc1ccc(Oc2ccc(Cl)cc2)cc1)NO` [Example 27, hydrochloride], the pIC50 is > 5.30.

As for `O=C(O)CCCN1CCC[C@@H]1COc1ccc(Oc2ccc(Cl)cc2)cc1` [Example 20, 4-{(R)-2-[4-(4-Chloro-phenoxy)-phenoxymethyl]-pyrrolidin-1-yl}-butyric acid hydrochloride], the pIC50 was > 5.30.

With “(S)-2-[4-(2-thiophen-benzyl)-phenoxymethyl]-pyrrolidine hydrogen chloride salt [Example 117]”, the pIC50 is > 5.30.

Regarding `NC(=O)NCCCN1CCC[C@H]1COc1ccc(Oc2ccc(Cl)cc2)cc1` [Example 40, (3-{(S)-2-[4-(4-Chloro-phenoxy)-phenoxymethyl]-pyrrolidin-1-yl}-propyl)-urea], the pIC50 was > 5.30.

On to `O=C(O)CCCN1CCC[C@@H]1COc1ccc(Oc2ccc(-c3nccs3)cc2)cc1` [Example 147, 4-{(R)-2-[4-(4-Thiazol-2-yl-phenoxy)-phenoxymethyl]-pyrrolidin-1-yl}-butyric acid], for which the pIC50 was > 5.30.

Regarding `O=C(O)CCCN1CCC[C@H]1COc1ccc(Oc2ccc(Cl)cc2)cc1` [Example 22, 4-{(S)-2-[4-(4-Chloro-phenoxy)-phenoxymethyl]-pyrrolidin-1-yl}-butyric acid hydrochloride], the pIC50 was > 5.30.

The target of another assay is T1, human LTA4 hydrolase (Homo sapiens, UniProt P09960).
T1 construct: A human LTA4 hydrolase full-length cDNA clone (NM 000895) was purchased; His tag (6xHis of vector pDEST17); made in house; host or cells: Escherichia coli BL21-AI
T1 sequence (P09960 1-611): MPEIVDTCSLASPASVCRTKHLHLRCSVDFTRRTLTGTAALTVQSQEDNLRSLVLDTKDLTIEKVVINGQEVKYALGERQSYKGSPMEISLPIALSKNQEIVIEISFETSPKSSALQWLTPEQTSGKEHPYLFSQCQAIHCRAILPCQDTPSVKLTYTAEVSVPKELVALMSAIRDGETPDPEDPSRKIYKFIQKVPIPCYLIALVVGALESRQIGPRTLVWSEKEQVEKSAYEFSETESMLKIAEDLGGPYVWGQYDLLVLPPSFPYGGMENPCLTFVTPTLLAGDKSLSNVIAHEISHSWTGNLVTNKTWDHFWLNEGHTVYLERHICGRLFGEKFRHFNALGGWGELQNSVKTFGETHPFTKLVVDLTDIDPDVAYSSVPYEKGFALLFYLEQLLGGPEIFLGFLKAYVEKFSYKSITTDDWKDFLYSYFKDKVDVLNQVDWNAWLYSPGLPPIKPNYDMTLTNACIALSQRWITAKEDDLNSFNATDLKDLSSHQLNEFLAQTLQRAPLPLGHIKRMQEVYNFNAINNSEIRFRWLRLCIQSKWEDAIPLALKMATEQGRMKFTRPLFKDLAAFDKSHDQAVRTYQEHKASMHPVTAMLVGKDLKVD
The assay is described as follows: In vitro assay testing inhibitory activity against purified recombinant human LTA4 hydrolase (LTB4 formed, LC-MS/MS).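 Note: 200 nM enzyme preincubated 10 min at room temperature with serial inhibitor dilutions in pH 8.0 Tris buffer with BSA and 10% DMSO, then 2 µM LTA4 added.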 The format is biochemical. The following applies: recombinant human LTA4 hydrolase 200 nM, LTA4 2 μM; read-out: AvgIC50.
Description: (1) In vitro assay testing inhibitory activity against purified recombinant human LTA4 hydroase. […] The gene was amplified by polymerase chain reaction and transferred via pDONR201 into the bacterial expression vector pDEST17 by recombination (both plasmids from Invitrogen, Carlsbad, Calif.). The resulting construct was transformed into Escherichia coli BL21-AI (Invitrogen), and expression was induced by chemical induction with arabinose. The recombinant enzyme was purified by chromatography on an FPLC system (Amersham Biosciences, Uppsala, Sweden) using immobilized metal affinity chromatography (Ni-NTA Superflow, Qiagen, Hilden, Germany) and anion exchange chromatography (MonoQ HR 10/10, Amersham Biosciences).
The compounds of the invention were incubated in a series of dilutions with 200 nM of recombinant enzyme in assay buffer (100 mM Tris-HCl, 100 mM NaCl, 5 mg/ml fatty-acid free BSA, 10% DMSO, pH 8.0) for 10 min at room temperature to allow binding between LTA4 hydrolase and the inhibitors. LTA4 was prepared by alkaline hydrolysis of LTA4 methyl ester (Biomol, Plymouth Meeting, Pa., or Cayman Chemicals, Ann Arbor, Mich.). A solution of 10 μg of the ester was dried under a nitrogen stream and redissolved in 60 μl of a solution of 80% acetone and 20% 0.25 M NaOH. After incubation for 40 min at room temperature the resulting approximately 500 μM tock of LTA4 was kept at −80° C. for no more than a few days prior to use.
Immediately before the assay, LTA4 was diluted to a concentration of 10 μM in assay buffer (without DMSO) and added to the reaction mixture to a final concentration of 2 μM to initiate the enzyme reaction. […] The samples were then kept at 4° C. overnight to complete protein precipitation and centrifuged for 15 min at 1800 g.
As for `Clc1ccc(-c2ccc(Cc3ccc(OC[C@H]4CCCN4)cc3)cc2)s1` [Example 111, (R)-2-{4-[4-(5-chloro-thiophen-2-yl)-benzyl]-phenoxymethyl}-pyrrolidine hydrogen chloroide salt], the pIC50 was > 5.30.

Turning to `Fc1ccc(Oc2ccc(OC[C@H]3CCCN3)cc2)cc1` [Example 49, (R)-2-[4-(4-Fluoro-phenoxy)-phenoxymethyl]-pyrrolidine], the pIC50 was > 5.30.

Turning to `O=C(O)CCCN1CCC[C@@H]1COc1ccc(Cc2ccccc2)cc1` [Example 10, 4-[(R)-2-(4-benzyl-phenoxymethyl)-pyrrolidin-1-yl]-butylic acid hydrochloride], the pIC50 was > 5.30.

For the compound `c1csc(-c2ccc(Oc3ccc(OC[C@H]4CCCN4)cc3)cc2)n1` [Example 146, 2-{4-[4-((R)-1-Pyrrolidin-2-ylmethoxy)-phenoxy]-phenyl}-thiazole hydrochloride salt], the pIC50 is > 5.30.

Take `Ic1ccc(Cc2ccc(OC[C@H]3CCCN3)cc2)cc1` [Example 106, (R)-2-[4-(4-Iodo-benzyl)-phenoxymethyl]-pyrrolidine Hydrogen chloride salt]: the pIC50 was > 5.30.

`O=C(O)CCCN1CCC[C@@H]1COc1ccc(Oc2ccc(C(F)(F)F)cc2)cc1` [Example 30, (R)-2-[4-(4-trifluoromethyl-phenoxy)-phenoxymethyl]-pyrrolidine-1-yl}butyric acid sodium salt]: the pIC50 was > 5.30.

Consider `O=C(O)CN1CCC[C@@H]1COc1ccc(Oc2ccc(C(F)(F)F)cc2)cc1` [Example 28, (R)-2-[4-(4-trifluoromethyl-phenoxy)-phenoxymethyl]-pyrrolidine-1-yl)acetic acid sodium salt], for which the pIC50 is > 5.30.

Consider `O=C(O)CCCN1CCC[C@H]1COc1ccc(Cc2ccc(-c3nccs3)cc2)cc1` [Example 151, 4-{(S)-2-[4-(4-Thiazol-2-yl-benzyl)-phenoxymethyl]-pyrrolidin-1-yl}-butylic acid hydrochloride salt], for which the pIC50 was > 5.30.

For the compound `O=C(O)CCCN1CCC[C@H]1COc1ccc(Oc2ccc(C(F)(F)F)cc2)cc1` [Example 25], the pIC50 is > 5.30.

As to `c1ccc(Cc2ccc(OC[C@H]3CCCN3)nc2)cc1` [Example 141, 5-Benzyl-2-((R)-1-pyrrolidin-2-ylmethoxy)-pyridinehydrochloride salt], the pIC50 is > 5.30.

Consider `c1ccc(Cc2ccc(OC[C@H]3CCCN3Cc3ccncc3)cc2)cc1` [Example 6, 4-[(R)-2-(4-benzyl-phenoxymethyl)-pyrrolidin-1-ylmethyl]-pyridine], for which the pIC50 is > 5.30.

For `c1ccc(Oc2ccc(OC[C@H]3CCCN3)cc2)cc1` [Example 45, (R)-2-(4-Phenoxy-phenoxymethyl)-pyrrolidine], the pIC50 is > 5.30.

As for `Clc1ccc(Oc2ccc(OC[C@@H]3CCCCN3Cc3ncno3)cc2)cc1` [Example 63, (S)-2-[4-(4-Chloro-phenoxy)-phenoxymethyl]-1-[1,2,4]oxadiazol-5-ylmethyl-piperidine hydrochloride], the pIC50 is > 5.30.

With `O=C(O)CCCN1CCC[C@@H]1COc1ccc(Cc2ccc(-c3ccc(Cl)s3)cc2)cc1` [Example 116, (R)-2-{4-[4-(5-chloro-thiophen-2-yl)-benzyl]-phenoxymethyl}-pyrrolidin-1-yl}-butyric hydrogen chloride salt], the pIC50 is > 5.30.

Consider `Cc1noc(CCCN2CCC[C@H]2COc2ccc(Cc3ccccc3)cc2)n1` [Example 32], for which the pIC50 was > 5.30.

With `c1ccc(Cc2ccc(OCC[C@@H]3CCCCN3)cc2)cc1` [Example 71, (S)-2-[(4-Benzylphenoxy)ethyl]-piperidine hydrochloride], the pIC50 is > 5.30.

On to `O=C(O)CCN1CCC[C@H]1COc1ccc(Cc2ccccc2)cc1` [Example 34, 3-[(S)-2-(4-Benzyl-phenoxymethyl)-pyrrolidin-1-yl]-propionic acid HCl salt], for which the pIC50 is 4.70 to 5.30.

Consider `O=C(O)CCCN1CCC[C@H]1COc1ccc(Cc2ccc(-c3ccccc3)s2)cc1` [Example 162, 4-{(S)-2-[4-(5-Phenyl-thiophen-2-ylmethyl)-phenoxymethyl]-pyrrolidin-1-yl}-butyric acid], for which the pIC50 is > 5.30.

For the compound `N#CC1(c2ccc(Oc3ccc(OC[C@H]4CCCN4)cc3)cc2)CC1` [Example 136, 1-{4-[4-((R)-1-Pyrrolidin-2-ylmethoxy)-phenoxy]-phenyl}-cyclopropanecarbonitrile hydrogen chloride salt], the pIC50 is > 5.30.

With `FC(F)(F)Oc1ccc(Oc2ccc(OC[C@H]3CCCN3)cc2)cc1` [Example 11, (R)-2-[4-(4-Trifluoromethoxy-phenoxy)-phenoxymethyl]-pyrrolidine hydrochloride], the pIC50 is > 5.30.

For `Fc1ccc(COc2ccc(OC[C@H]3CCCN3)cc2)cc1` [Example 92, (R)-2-[4-(4-Fluoro-benzyloxy)-phenoxymethyl]-pyrrolidine Hydrogen chloride salt], the pIC50 is > 5.30.

In the case of `c1ccc(Cc2ccc(OCCC3CCCCN3)cc2)cc1` (racemic) [Example 72, (+/−)-2-[(4-Benzylphenoxy)ethyl]-piperidine hydrochloride], the pIC50 is > 5.30.

With `O=C(O)CCN1CCC[C@H]1COc1ccc(Oc2ccc(C(F)(F)F)cc2)cc1` [Example 26, (S)-2-[4-(4-trifluoromethyl-phenoxy)-phenoxymethyl]-pyrrolidine-1-yl}propionic acid sodium salt], the pIC50 is > 5.30.

For `COC(=O)CCN1CCCC[C@H]1COc1ccc(Oc2ccc(Cl)cc2)cc1` [Example 58, 3-{(S)-2-[4-(4-Chloro-phenoxy)-phenoxymethyl]-piperidin-1-yl}-propionic acid methyl ester], the pIC50 is > 5.30.

With `N#Cc1ccc(Oc2ccc(OC[C@H]3CCCN3)cc2)cc1` [Example 15, 4-[4-((R)-1-Pyrrolidin-2-ylmethoxy)-phenoxy]-benzonitrile hydrochloride], the pIC50 is > 5.30.

Consider `c1ncc(-c2ccc(Oc3ccc(OC[C@H]4CCCN4)cc3)cc2)o1` [Example 132, 5-{4-[4((R)-1-Pyrrolidin-2-ylmethoxy)-phenoxy]-phenyl}-oxazole, hydrogen chloride salt], for which the pIC50 is 4.70 to 5.30.

For `O=C(O)CCCN1CCC[C@H]1COc1ccc(Cc2ccc(-c3cccs3)cc2)cc1` [Example 118], the pIC50 is > 5.30.

As for `Clc1ccc(COc2ccc(OC[C@H]3CCCN3)cc2)c(Cl)c1` [Example 91, (R)-2-[4-(2,4-Dichloro-benzyloxy)-phenoxymethyl]-pyrrolidine hydrogen chloride salt], the pIC50 was 4.70 to 5.30.

For the compound `FC(F)(F)c1cccc(COc2ccc(OC[C@H]3CCCN3)cc2)c1` [Example 96, (R)-2-[4-(3-Trifluoromethyl-benzyloxy)-phenoxymethyl]-pyrrolidine Hydrogen chloride salt], the pIC50 is 4.70 to 5.30.

Take `c1coc(-c2ccc(Oc3ccc(OC[C@H]4CCCN4)cc3)cc2)n1` [Example 148, hydrochloride salt]: the pIC50 is > 5.30.

`c1coc(-c2ccc(Cc3ccc(OC[C@H]4CCCN4)cc3)cc2)n1` [Example 152, 2-{4-[4-((R)-1-Pyrrolidin-2-ylmethoxy)-benzyl]-phenyl}-oxazole]: the pIC50 is > 5.30.

`c1ccc2[nH]c(Oc3ccc(OC[C@H]4CCCN4)cc3)nc2c1` [Example 103, 2-[4-((R)-1-Pyrrolidin-2-ylmethoxy)-phenoxy]-1H-benzoimidazole Hydrogen chloride salt]: the pIC50 was > 5.30.
